Laboratory results reported in patent publication US20250312469A1 (CANGET BIOTEKPHARMA, priority 2024, published 2025).

What was measured:
[1] = biological target: DDX5 (Homo sapiens, UniProt P17844); experiment: Isothermal titration calorimetry (ITC), Flag-DDX5; format: binding; conditions: from ITC KD
[2] = in vivo; conditions: SCID, mouse, iv
[3] = Hepatocyte stability; conditions: for hepatocyte CLint at 0.5 μM / half-life at 0.5 μM: both, human, hepatocytes; for hepatocyte CLint at 0.5 μM: pH 7.4, Clint (intrinsic clearance); for hepatocyte CLint at 0.5 μM / half-life at 0.5 μM / % Remaining: cryopreserved human hepatocytes; for half-life at 0.5 μM: pH 7.4, Half-life
[4] = tested on: pancreatic cancer PDX14244 or PDX17624 tumors; experiment: Western blots of pancreatic cancer PDX tumors after oral treatment; format: in vivo, SCID mice; conditions: 5 mg/kg oral; day 1-3
Method: The collected tumor tissues were then homogenized with untrasound and analyzed using the corresponding antibodies for DDX5, Agrin, YAP1, p-FAK, FAK, Integrin and Actin via Western blots. Actin expression is the internal control of total protein loading.
For frozen prostate cancer tissue specimens and their adjacent non-tumor tissues (if any) obtained from Roswell Park pathology network, 30-50 mg of each tissue in a 1.5 Eppendorf tube containing 500 μL of 2×SDS lysis buffer containing Tris pH 6.8+4% SDS+10% Glycerol were homogenized through ultrasound treatment for 10-15 second per time with 3-6 times until tumor tissue was lysed. After all tissues were processed, 1.5 mL tubes were centrifuged at 13,000 rom in a microcentrifuge for 1-2 min and then the supernatant in each tube was transferred into a new 1.5 mL tube for protein concentration measurement (refer to the section of “Studies with Human patient tumor specimens” for more information). […] Proteins of interest were detected using Western Lightning ECL-Plus (Perkin Elmer, Waltham, MA) and visualized by various times (3-120 seconds) of exposure. Actin, tubulin and/or GAPDH were detected as the internal control to normalize total protein loading for each sample.

[5] = tested on: CYP3A4 mRNA; conditions: human, hepatocytes
Source text: (2) CYP positive inducers (Table 58a) and Williams' Medium E (WME) were purchased from Sigma-Aldrich (St. Louis, MO, USA). Dulbecco's phosphate-buffered saline (DPBS, pH 7.4) was purchased from Invitrogen (Carlsbad, CA, USA). Hepatocyte culture medium (serum-free) for CYP induction was purchased from XenoTech (catalog #K2300, Lenexa, KS, USA). The CellTiter 96 AQueous ONE Solution Cell Proliferation Assay was obtained from Promega (Madison, WI, USA). All other chemicals and reagents were of analytical grade or higher. (3) Fresh human hepatocytes (Table 58b) seeded at ˜0.15 million cells/well in 48-well plates (˜0.75 million cells/mL) were purchased from Thermo Fisher Scientific (Grand Island, NY, USA) and BioreclamationIVT (Baltimore, MD, USA).
Vehicle controls were treated in parallel with hepatocyte culture medium. […] (2) After the CYP induction treatment, the cells were used for a cell viability assay. […] The absorbance of formazan, which is proportional to the number of viable cells, was measured spectrophotometrically using the CellTiter 96 AQueous ONE Solution Cell Proliferation Assay. […] The concentration of RNA was determined using a Qubit Fluorometer with a Qubit RNA HS assay kit (Invitrogen). cDNA was synthesized from up to 1 μg of the total RNA harvested from the cells using a QuantiTect RT kit (Qiagen). […]

[6] = tested on: Panc-1, BxPC-3 and MiaPaca-2 cells; experiment: Cell monolayer wound healing test; format: cell-based, human
Method: Representative cell migration wound healing images were taken at zero hour and wound healing for 48-72 hours.

[7] = in vitro; conditions: for microsomal CLint at 0.5 μM / half-life at 0.5 μM: both; for microsomal CLint at 0.5 μM: s9, CLint (intrinsic clearance); for microsomal CLint at 0.5 μM / half-life at 0.5 μM / % Remaining of Initial (n = 1): human liver S9 fraction; for half-life at 0.5 μM: s9, Half-life (min)
[8] = tested on: DU145 xenografts; experiment: DU145 xenograft tumor model; conditions: 8 mg/kg oral, weekly×4
[9] = tested on: Panc-1 and BxPC-3 cells; experiment: Cell attachment after FL118 pretreatment; format: cell-based, human; conditions: 24 h pretreatment, reseeded
Method: The harvested cells were then reseeded at an expected 30-60% confluence if all cell attached to the cell cultural dish. […] Representative cell attachment images were taken 4-16 hours dependent on control cell attachment speed after cell seeding. Quantitative analysis of non-attached cell numbers was documented in parallel for each condition.

[10] = tested on: LNCaP, DU145 and PC-3 cells; experiment: MTT cell growth/viability assay in PCa cells; format: cell-based, human
Method: MTT assay for determining cancer cell growth viability: The MTT assay was described previously (13). […] Briefly, ˜2500 viable cells with or without genetic manipulation were plated in each well in 96-well plates. […] MTT, a colorimetric substrate, was then added to a final concentration of 0.4 mg/mL to each well. Cells in 96-well plates were further incubated in a 5% CO2 incubator at 37° C. for 4 h, and then the medium was aspirated. The MTT metabolic product formazan was solubilized by adding 200 μl of DMSO to each well. Absorbance in the relevant wells was measured at 570 nm using an Ultra Microplate Reader (Bio-Tek Instruments).

DDX5, sequence (P17844 whole entry): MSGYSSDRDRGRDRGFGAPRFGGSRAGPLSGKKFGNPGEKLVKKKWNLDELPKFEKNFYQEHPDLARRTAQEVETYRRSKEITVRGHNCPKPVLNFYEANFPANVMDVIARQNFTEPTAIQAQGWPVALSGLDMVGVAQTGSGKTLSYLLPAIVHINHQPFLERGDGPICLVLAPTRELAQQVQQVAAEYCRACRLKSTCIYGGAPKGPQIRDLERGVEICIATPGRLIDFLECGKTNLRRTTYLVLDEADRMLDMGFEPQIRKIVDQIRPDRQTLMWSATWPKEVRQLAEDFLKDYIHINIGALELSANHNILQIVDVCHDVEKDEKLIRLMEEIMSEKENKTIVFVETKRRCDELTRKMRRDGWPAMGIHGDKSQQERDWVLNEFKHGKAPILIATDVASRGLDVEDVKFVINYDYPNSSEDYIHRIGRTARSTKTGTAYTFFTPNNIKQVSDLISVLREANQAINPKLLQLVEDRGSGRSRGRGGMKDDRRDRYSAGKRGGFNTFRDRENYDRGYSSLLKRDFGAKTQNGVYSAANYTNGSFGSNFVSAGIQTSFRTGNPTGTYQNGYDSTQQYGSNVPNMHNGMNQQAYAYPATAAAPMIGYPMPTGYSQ

In the case of `CCC1(O)C(=O)OCc2c1cc1n(c2=O)Cc2cc3cc4c(cc3nc2-1)OCO4` (centres unmarked) [FL118], the “FL118 binding to DDX5 versus Top1 (times stronger)” value [1] is reported as “about 10”, the Tmax ([2]; FaDu tumor) is reported as 10 min and the half-life ([2]; FaDu tumor) is reported as 411 min. It also gave a Tmax ([2]; SW620 tumor) of 10 min, a half-life ([2]; SW620 tumor) of 765 min and a Tmax ([2]; plasma) of 10 min. For the same compound, the Vd ([2]; plasma) was 36.8 L/kg, the clearance ([2]; plasma) was 238 mL/min/kg and the half-life ([2]; plasma) was 107 min. For the same compound, the half-life ([3]; 0.5 μM) was “long half-life”, the hepatocyte CLint at 0.5 μM ([3]; calculated (in parentheses)) was 2.96 µL/min/1e6 cells and the hepatocyte CLint at 0.5 μM ([3]; bound) was less than 3.85 µL/min/1e6 cells. For the same compound, the half-life at 0.5 μM ([3]; calculated (in parentheses), calculated half-life longer than the experiment) was 156 min, the half-life at 0.5 μM ([3]; expressed as > the longest incubation time (120 min)) was greater than 120 min and the “% Remaining” value ([3]; 0 min) was 100%. For the same compound, the “% Remaining” value ([3]; 15 min) was 79%, the “% Remaining” value ([3]; 30 min) was 71% and the “% Remaining” value ([3]; 60 min) was 66%. For the same compound, the “% Remaining” value ([3]; 120 min) was 58%, the “DDX5, Agrin, YAP1, p-FAK, Integrin in PDX tumors” value [4] was “more profound decrease” and the “minor induction of CYP3A4” value [5] was 5-8%. For the same compound, the “minor induction of CYP3A4 mRNA” value [5] was “FL118 induces a minor induction (5-8%) of CYP3A4”, the “cell migration wound healing” value [6] was “exhibited cell migration wound healing defect” and the microsomal CLint at 0.5 μM ([7]; human, calculated (in parentheses)) was 11.1 µL/min/mg. For the same compound, the microsomal CLint at 0.5 μM ([7]; human, bound) was less than 11.6 µL/min/mg, the half-life at 0.5 μM ([7]; human, calculated (in parentheses), calculated half-life longer than the experiment) was 63 min and the half-life at 0.5 μM ([7]; human, expressed as > the longest incubation time) was greater than 60 min. The “% Remaining of Initial (n = 1)” value ([7]; 0 min) was 100%, the “% Remaining of Initial (n = 1)” value ([7]; 10 min) was 82% and the “% Remaining of Initial (n = 1)” value ([7]; 20 min) was 73%. The “% Remaining of Initial (n = 1)” value ([7]; 30 min) was 69%, the “% Remaining of Initial (n = 1)” value ([7]; 60 min) was 52% and the half-life ([7]; human, s9) was “long half-life”. The antitumor efficacy [8] was “well inhibited”, the cell attachment [9] was “exhibited cell attachment defect” and the “cell growth inhibition in DDX5 KO DU145 cells” value ([10]; 72h MTT) was “significantly increased resistance to FL118 treatment”. For the same compound, the “cell growth inhibition, DU145 vs LNCaP and PC-3” value ([10]; 72h MTT) was “higher sensitivity to FL118-induced cell growth inhibition” and the “cell growth inhibition with USP2a overexpression” value ([10]; LNCaP, DU145, 72 h) was “enhances FL 118-mediated inhibition of PCa cell growth”.
